Experimental data published in US8415469B2, “Compounds and methods for kinase modulation, and indications therefor” (Plexxikon Inc., priority 2005, dated 2013).

What was measured:
Type in all cases: biochemical
[1] = target: T1, Jak3 (Homo sapiens, UniProt P52333); assay: AlphaScreen kinase assay, Jak3; conditions: read-out: IC50, activity toward kinase Jak3
T1 sequence (P52333 1-1124): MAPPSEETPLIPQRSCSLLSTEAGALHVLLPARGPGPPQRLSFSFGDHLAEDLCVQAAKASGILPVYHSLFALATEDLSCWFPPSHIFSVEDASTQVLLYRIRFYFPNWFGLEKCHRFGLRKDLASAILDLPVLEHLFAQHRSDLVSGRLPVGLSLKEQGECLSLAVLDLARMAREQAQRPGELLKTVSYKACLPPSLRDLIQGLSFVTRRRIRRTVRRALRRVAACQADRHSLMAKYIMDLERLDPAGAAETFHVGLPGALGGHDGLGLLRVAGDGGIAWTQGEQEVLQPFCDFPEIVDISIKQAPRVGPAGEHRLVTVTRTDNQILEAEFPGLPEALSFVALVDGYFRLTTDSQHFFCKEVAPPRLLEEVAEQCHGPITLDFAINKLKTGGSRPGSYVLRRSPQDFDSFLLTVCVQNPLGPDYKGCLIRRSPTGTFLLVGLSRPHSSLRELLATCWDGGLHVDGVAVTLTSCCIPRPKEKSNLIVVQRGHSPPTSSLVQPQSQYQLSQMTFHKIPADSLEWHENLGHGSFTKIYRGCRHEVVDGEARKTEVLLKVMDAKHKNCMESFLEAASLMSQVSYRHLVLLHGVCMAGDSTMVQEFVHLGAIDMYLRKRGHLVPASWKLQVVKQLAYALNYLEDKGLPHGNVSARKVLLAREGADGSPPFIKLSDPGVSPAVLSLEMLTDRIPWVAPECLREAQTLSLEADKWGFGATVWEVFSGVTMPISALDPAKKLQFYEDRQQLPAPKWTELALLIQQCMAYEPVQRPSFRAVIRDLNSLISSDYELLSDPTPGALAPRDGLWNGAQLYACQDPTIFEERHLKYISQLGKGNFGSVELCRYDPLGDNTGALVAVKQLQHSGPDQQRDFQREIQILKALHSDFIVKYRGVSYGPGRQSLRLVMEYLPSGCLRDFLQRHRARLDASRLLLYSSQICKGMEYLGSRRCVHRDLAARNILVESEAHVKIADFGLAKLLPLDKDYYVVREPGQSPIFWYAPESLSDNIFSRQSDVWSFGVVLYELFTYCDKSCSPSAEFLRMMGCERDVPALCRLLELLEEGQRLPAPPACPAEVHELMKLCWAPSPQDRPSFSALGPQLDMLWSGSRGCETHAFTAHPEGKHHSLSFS
How it was run: (§1)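 Bead-proximity format: phosphopeptide links anti-phospho antibody acceptor beads to streptavidin donor beads via biotin tag. Compounds were serially diluted 1:3 (8 points) from 20 mM stocks in DMSO.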

[2] = target: T2, Pyk2 (Homo sapiens, UniProt Q14289); assay: AlphaScreen kinase assay, Pyk2; conditions: read-out: IC50, activity toward kinase Pyk2
T2 construct: purchased Upstate Biotechnology
T2 sequence (Q14289 whole entry): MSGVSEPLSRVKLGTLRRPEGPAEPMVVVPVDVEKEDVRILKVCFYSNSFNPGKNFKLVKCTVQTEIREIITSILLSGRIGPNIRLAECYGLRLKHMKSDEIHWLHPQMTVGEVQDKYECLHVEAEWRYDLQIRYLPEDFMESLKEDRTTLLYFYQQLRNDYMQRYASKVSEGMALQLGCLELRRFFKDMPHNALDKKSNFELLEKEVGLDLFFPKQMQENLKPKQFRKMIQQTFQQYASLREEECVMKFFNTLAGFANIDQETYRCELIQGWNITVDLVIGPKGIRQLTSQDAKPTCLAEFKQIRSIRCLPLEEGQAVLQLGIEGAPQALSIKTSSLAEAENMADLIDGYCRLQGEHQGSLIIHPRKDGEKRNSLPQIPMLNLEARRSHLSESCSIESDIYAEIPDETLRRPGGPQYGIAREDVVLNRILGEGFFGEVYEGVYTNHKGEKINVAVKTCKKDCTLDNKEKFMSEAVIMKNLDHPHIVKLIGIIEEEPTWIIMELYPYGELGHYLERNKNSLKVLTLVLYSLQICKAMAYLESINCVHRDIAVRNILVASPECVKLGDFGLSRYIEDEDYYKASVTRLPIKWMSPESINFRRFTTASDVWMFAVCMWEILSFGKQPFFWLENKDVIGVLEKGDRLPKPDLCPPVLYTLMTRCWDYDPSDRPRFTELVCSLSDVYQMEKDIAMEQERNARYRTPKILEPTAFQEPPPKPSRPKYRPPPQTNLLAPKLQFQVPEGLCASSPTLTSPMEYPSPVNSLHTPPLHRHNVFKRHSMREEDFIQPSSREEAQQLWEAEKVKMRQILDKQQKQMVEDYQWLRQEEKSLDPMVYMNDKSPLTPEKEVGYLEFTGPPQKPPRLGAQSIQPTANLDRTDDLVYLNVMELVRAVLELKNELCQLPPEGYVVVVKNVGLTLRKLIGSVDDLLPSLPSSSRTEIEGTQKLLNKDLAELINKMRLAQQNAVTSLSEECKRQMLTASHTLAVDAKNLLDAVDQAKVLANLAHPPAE

[3] = target: Akt3 (Homo sapiens, UniProt Q9Y243); assay: AlphaScreen kinase assay, Akt3; conditions: read-out: IC50, activity toward kinase Akt3
Chain of Akt3 (Q9Y243 whole entry): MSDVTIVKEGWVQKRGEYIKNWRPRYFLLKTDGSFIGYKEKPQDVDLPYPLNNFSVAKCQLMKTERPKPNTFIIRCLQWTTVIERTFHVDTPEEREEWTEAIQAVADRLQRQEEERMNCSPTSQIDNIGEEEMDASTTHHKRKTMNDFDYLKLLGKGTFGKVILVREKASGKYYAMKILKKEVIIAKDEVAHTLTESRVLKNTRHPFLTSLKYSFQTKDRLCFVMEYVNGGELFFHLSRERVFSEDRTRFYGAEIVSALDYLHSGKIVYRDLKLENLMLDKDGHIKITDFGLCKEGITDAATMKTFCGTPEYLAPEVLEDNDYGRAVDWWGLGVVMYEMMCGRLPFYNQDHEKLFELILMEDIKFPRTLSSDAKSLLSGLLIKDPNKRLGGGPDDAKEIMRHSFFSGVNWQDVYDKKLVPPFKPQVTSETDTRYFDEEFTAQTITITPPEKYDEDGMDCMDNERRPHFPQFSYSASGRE
How it was run: as §1

[4] = target: T3, c-Raf-1 (Homo sapiens, UniProt P04049); assay: AlphaScreen kinase assay, c-Raf-1; conditions: read-out: IC50, activity toward kinase c-Raf-1
T3 construct: purchased Upstate Biotechnology
T3 sequence (P04049 whole entry): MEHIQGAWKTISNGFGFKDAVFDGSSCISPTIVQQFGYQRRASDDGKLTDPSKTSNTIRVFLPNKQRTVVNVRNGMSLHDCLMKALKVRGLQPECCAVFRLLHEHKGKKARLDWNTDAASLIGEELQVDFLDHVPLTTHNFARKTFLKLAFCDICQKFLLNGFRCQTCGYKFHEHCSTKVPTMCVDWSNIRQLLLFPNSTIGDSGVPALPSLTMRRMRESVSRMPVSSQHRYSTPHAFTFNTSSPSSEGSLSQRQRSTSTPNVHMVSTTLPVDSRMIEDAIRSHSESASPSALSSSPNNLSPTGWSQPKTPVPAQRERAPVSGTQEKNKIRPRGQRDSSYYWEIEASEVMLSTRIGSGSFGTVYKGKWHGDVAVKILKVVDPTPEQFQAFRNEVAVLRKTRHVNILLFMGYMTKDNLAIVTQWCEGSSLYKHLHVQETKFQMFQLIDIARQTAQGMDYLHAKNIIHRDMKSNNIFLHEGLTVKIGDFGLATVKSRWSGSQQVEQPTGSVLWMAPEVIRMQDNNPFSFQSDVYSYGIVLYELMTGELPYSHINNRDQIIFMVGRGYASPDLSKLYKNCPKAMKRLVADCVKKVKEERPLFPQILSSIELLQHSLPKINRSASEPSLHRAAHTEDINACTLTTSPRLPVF

[5] = target: T4, Met (Homo sapiens, UniProt P08581); assay: AlphaScreen kinase assay, Met; conditions: read-out: IC50, activity toward kinase Met
T4 construct: P1818.pETN6 BI-PTP MET G1056-G1364-X WT; His6 (N); made in house; host or cells: E. coli (PTP1B co-expressed)
T4 sequence (P08581 with tags, fused parts or gaps): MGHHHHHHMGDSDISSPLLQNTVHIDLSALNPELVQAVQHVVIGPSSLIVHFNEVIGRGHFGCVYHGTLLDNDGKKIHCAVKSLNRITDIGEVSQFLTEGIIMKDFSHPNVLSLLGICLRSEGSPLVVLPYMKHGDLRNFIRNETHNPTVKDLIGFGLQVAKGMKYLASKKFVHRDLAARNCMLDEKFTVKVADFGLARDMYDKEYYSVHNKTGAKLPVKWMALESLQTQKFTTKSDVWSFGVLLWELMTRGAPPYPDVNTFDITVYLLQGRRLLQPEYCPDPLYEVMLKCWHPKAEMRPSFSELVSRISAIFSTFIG
How it was run: as §1

[6] = target: T5, Flt1 (Homo sapiens, UniProt P17948); assay: AlphaScreen kinase assay, Flt1; conditions: read-out: IC50, activity toward kinase Flt1
T5 construct: P1826.pETN6 BI-PTP FLT1 M799-D1165-X WT; His6 (N); made in house; host or cells: E. coli (PTP1B co-expressed)
T5 sequence (P17948 with tags, fused parts or gaps): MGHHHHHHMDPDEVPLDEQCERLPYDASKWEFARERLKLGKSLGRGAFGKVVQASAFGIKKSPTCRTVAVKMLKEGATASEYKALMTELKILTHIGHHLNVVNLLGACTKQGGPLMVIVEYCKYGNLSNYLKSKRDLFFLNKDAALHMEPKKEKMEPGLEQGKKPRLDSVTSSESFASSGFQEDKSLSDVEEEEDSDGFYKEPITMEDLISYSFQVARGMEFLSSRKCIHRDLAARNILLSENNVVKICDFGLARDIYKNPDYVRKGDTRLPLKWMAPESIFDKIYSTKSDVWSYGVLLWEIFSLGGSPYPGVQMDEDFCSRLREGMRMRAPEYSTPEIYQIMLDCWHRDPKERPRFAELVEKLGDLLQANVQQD

[7] = target: T6, Abl (Homo sapiens, UniProt P00519); assay: AlphaScreen kinase assay, Abl; conditions: read-out: activity toward kinase Abl, IC50
T6 construct: P1121. pET-SPEC BI-PTP Abl G227-V515-X; His6 (N); made in house; host or cells: E. coli (PTP1B co-expressed)
T6 sequence (P00519 with tags, fused parts or gaps): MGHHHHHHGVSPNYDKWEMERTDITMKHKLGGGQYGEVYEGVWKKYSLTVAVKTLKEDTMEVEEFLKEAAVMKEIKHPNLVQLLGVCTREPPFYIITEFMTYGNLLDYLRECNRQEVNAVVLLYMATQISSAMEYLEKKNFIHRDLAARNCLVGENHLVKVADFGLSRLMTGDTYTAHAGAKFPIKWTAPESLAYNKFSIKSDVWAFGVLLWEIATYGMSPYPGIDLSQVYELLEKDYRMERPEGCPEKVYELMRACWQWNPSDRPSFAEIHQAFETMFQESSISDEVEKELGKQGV
How it was run: as §1

[8] = target: T7, Src (Homo sapiens, UniProt P12931); assay: AlphaScreen kinase assay, Src; conditions: read-out: IC50, activity toward kinase Src
T7 construct: P1144. pET-N6 BI-PTP SRC V86-L536-X; made in house
T7 sequence (P12931 with tags, fused parts or gaps): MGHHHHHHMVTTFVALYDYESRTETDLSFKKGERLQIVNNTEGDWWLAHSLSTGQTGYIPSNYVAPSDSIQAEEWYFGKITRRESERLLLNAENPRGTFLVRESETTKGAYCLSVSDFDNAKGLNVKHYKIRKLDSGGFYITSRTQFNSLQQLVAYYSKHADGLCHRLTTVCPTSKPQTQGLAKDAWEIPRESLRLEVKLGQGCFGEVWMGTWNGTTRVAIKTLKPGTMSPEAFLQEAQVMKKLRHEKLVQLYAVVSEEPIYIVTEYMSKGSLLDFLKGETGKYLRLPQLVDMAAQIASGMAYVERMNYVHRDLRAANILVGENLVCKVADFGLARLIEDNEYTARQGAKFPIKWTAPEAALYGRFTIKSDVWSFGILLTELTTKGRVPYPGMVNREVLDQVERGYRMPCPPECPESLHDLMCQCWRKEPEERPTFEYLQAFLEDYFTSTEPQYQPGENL

[9] = target: T8, Jnk1 (Homo sapiens, UniProt P45983); assay: AlphaScreen kinase assay, Jnk1; conditions: read-out: IC50, activity toward kinase Jnk1
T8 construct: purchased Upstate Biotechnology
T8 sequence (P45983 whole entry): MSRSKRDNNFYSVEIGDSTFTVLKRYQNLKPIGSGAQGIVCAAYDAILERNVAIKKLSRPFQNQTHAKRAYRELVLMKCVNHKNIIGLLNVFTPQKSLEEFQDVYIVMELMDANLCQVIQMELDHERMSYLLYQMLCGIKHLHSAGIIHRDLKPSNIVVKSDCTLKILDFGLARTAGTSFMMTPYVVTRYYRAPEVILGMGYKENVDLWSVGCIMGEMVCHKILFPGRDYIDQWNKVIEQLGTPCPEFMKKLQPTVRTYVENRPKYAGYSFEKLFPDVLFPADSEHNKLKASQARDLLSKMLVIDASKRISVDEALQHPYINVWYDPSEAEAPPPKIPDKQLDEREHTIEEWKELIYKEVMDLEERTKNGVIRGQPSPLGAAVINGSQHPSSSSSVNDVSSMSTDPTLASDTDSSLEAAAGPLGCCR

| IC50 [1] [µM] | IC50 [6] [µM] | SMILES | further results |
| --- | --- | --- | --- |
| ≤ 10 | – | CC(=O)Nc1cccc(-c2ccnc3[nH]cc(C(=O)c4ccccc4F)c23)c1 [Compound P-0070] | – |
| ≤ 10 | – | Cc1ccc(F)cc1C(=O)c1c[nH]c2nccc(-c3cccc(NS(C)(=O)=O)c3)c12 [Compound P-0124] | – |
| ≤ 10 | – | O=C(c1cc(F)ccc1F)c1c[nH]c2nccc(-c3cccnc3)c12 [Compound P-0063] | – |
| ≤ 10 | – | Oc1ccc(F)c(Cc2c[nH]c3ncc(Br)cc23)c1F [Compound P-0122, 3-(5-Bromo-1H-pyrrolo[2,3-b]pyridin-3-ylmethyl)-2,4-difluoro-phenol] | IC50 [2]: ≤ 10 µM; IC50 [3]: ≤ 10 µM; IC50 [4]: ≤ 10 µM |
| ≤ 10 | ≤ 10 | CS(=O)(=O)c1cccc(-c2cnc3[nH]cc(C(O)c4c(F)ccc(F)c4F)c3c2)c1 (centres unmarked) [Compound P-0020] | IC50 [5]: ≤ 10 µM |
| ≤ 10 | ≤ 10 | O=C(c1cccc(O)c1)c1c[nH]c2ncc(Br)cc12 [Compound P-0019] | IC50 [7]: ≤ 10 µM; IC50 [3]: ≤ 10 µM |
| ≤ 10 | ≤ 10 | O=C(c1cccc(O)c1F)c1c[nH]c2ncc(-c3cccs3)cc12 [Compound P-0521, (2-fluoro-3-hydroxy-phenyl)-(5-thiophen-2-yl-1H-pyrrolo[2,3-b]pyridin-3-yl)-methanone] | IC50 [2]: ≤ 10 µM; IC50 [7]: ≤ 10 µM; IC50 [8]: ≤ 10 µM; IC50 [9]: ≤ 10 µM; IC50 [4]: ≤ 10 µM |
| ≤ 10 | – | Nc1cccc(-c2ccnc3[nH]cc(C(=O)c4cc(F)ccc4F)c23)c1 [Compound P-0046] | – |
| ≤ 10 | ≤ 10 | Oc1ccc(F)c(C(O)c2c[nH]c3ncc(-c4cccnc4)cc23)c1F (centres unmarked) [Compound P-0009, 2,4-difluoro-3-[hydroxy-(5-pyridin-3-yl-1H-pyrrolo[2,3-b]pyridin-3-yl)-methyl]-phenol] | IC50 [5]: ≤ 10 µM; IC50 [8]: ≤ 10 µM; IC50 [9]: ≤ 10 µM; IC50 [4]: ≤ 10 µM |
| ≤ 10 | ≤ 10 | NC(=O)c1cccc(-c2cnc3[nH]cc(C(=O)c4cccc(O)c4F)c3c2)c1 [Compound P-0034, 3-[3-(2-Fluoro-3-hydroxy-benzoyl)-1H-pyrrolo[2,3-b]pyridin-5-yl]benzamide] | IC50 [5]: ≤ 10 µM; IC50 [8]: ≤ 10 µM; IC50 [3]: ≤ 10 µM; IC50 [9]: ≤ 10 µM; IC50 [4]: ≤ 10 µM |
| ≤ 10 | – | O=C(c1ccccc1F)c1c[nH]c2nccc(-c3ccsc3)c12 [Compound P-0051] | – |
| ≤ 10 | ≤ 10 | Nc1cccc(-c2cnc3[nH]cc(C(=O)c4cccc(O)c4F)c3c2)c1 [Compound P-0004, [5-(3-amino-phenyl)-1H-pyrrolo[2,3-b]pyridin-3-yl]-(2-fluoro-3-hydroxy-phenyl)methanone] | IC50 [5]: ≤ 10 µM; IC50 [8]: ≤ 10 µM; IC50 [3]: ≤ 10 µM; IC50 [9]: ≤ 10 µM; IC50 [4]: ≤ 10 µM |
| ≤ 10 | ≤ 10 | NC(=O)c1ccc(-c2ccnc3[nH]cc(C(=O)c4cc(F)ccc4F)c23)cc1 [Compound P-0013] | – |
| ≤ 10 | – | Fc1cc(F)cc(-c2ccnc3[nH]cc(Sc4ccccn4)c23)c1 [Compound P-0106] | – |
| ≤ 10 | ≤ 10 | Nc1cccc(-c2cnc3[nH]cc(C(=O)c4cccc(O)c4)c3c2)c1 [Compound P-0003] | IC50 [7]: ≤ 10 µM; IC50 [8]: ≤ 10 µM; IC50 [3]: ≤ 10 µM; IC50 [9]: ≤ 10 µM |
| ≤ 10 | – | Cc1ccccc1C(=O)c1c[nH]c2nccc(-c3cccc(N)c3)c12 [Compound P-0044] | – |
| ≤ 10 | ≤ 10 | OC(c1c(F)ccc(F)c1F)c1c[nH]c2ncc(-c3cccnc3)cc12 (centres unmarked) [Compound P-0101] | IC50 [5]: ≤ 10 µM |
| ≤ 10 | – | Cc1ccccc1C(=O)c1c[nH]c2nccc(-c3cccc(NS(C)(=O)=O)c3)c12 [Compound P-0109] | – |
| ≤ 10 | – | CS(=O)(=O)c1cccc(-c2ccnc3[nH]cc(C(=O)c4cc(F)ccc4F)c23)c1 [Compound P-0171] | IC50 [8]: ≤ 10 µM |
| ≤ 10 | ≤ 10 | O=C(c1cccc(O)c1)c1c[nH]c2nccc(-c3cc(F)cc(F)c3)c12 [Compound P-0039] | – |
| ≤ 10 | – | NC(=O)c1ccc(-c2ccnc3[nH]cc(C(=O)c4ccccc4F)c23)cc1 [Compound P-0014] | – |
| ≤ 10 | – | NC(=O)c1cccc(-c2ccnc3[nH]cc(C(=O)c4cc(F)ccc4F)c23)c1 [Compound P-0049] | – |
| ≤ 10 | – | Nc1cccc(-c2ccnc3[nH]cc(C(=O)c4ccccc4F)c23)c1 [Compound P-0022] | – |
| ≤ 10 | ≤ 10 | O=C(c1ccc(O)cc1)c1c[nH]c2ncc(-c3cccs3)cc12 [Compound P-0024, (4-Hydroxy-phenyl)-(5-thiophen-2-yl-1H-pyrrolo[2,3-b]pyridin-3-yl)-methanone] | IC50 [2]: ≤ 10 µM; IC50 [3]: ≤ 10 µM; IC50 [4]: ≤ 10 µM |
| ≤ 10 | – | CS(=O)(=O)Nc1cccc(-c2ccnc3[nH]cc(C(=O)c4cc(F)ccc4F)c23)c1 [Compound P-0060] | IC50 [3]: ≤ 10 µM |
